The structures appear in SMILES notation. “Also recorded” adds a separate entry of the source. Some results are limits rather than exact numbers.

For orientation: inhibition means how much of the control response was suppressed. For orientation: EC50 means the midpoint of the concentration-response curve. Usually CC50 stands for the concentration at which the toxic effect on the cells reaches its halfway point. Read a low CC50 as harm at low concentration.

Data set [1] relates to HBV. Kind of data set: Anti-hepatitis B assay: extracellular HBV DNA by TaqMan PCR from HepG2 2.2.15 cells. It is filed as cell-based, Hepatitis B virus (wild-type ayw1 strain). Conditions: for Percentage virus inhibition: HBV, HepG2 2.2.15 cells, six days. An excerpt: (§1) The pure cannabis cannabinoid CBD of FIG. 2 was subjected to a modified anti-hepatitis B assay. [Korba B E, Gerin J L, Use Of A Standardized Cell Culture Assay To Assess Activities Of Nucleoside Analogs Against Hepatitis B Virus Replication, Antiviral Res, 19:55-70 (1992); Korba B E, Milman G., A Cell Culture Assay For Compounds Which Inhibit Hepatitis B Virus Replication, Antiviral Res 1991; 15:217-28]. The modifications allowed use in real time quantitative polymerase chain reaction (PCR) (TaqMan) to measure extracellular HBV DNA copy number associated with virions released from HepG2 2.2.15 cells. The HepG2 2.2.15 cell line is a stable cell line producing high levels of the wild-type ayw1 strain of HBV. Antiviral compounds blocking any later step of viral replication such as transcription, translation, pregenomeencapsidation, reverse transcription, particle assembly, and release can be identified and characterized using this cell line. In brief, HepG2 2.2.15 cells are plated in 96-well microtiter plates. Only the interior wells were utilized to reduce “edge effects” observed during cell culture; the exterior wells were filled with complete medium to help minimize sample evaporation. After incubation with 5% CO2 atmosphere at 37° C. for 16-24 h, the confluent monolayer of HepG2 2.2.15 cells was washed and the medium was replaced with complete medium containing test compounds at a single concentration of 10 μM. Three days later, the culture medium was replaced with fresh medium and test compounds at a single concentration of 10 μM. Six days following the initial administration of the test compounds, the cell culture supernatant was collected, treated with pronase and DNAse, and then used in a real-time quantitative TaqMan PCR assay. Antiviral activity was determined by calculating the reduction in HBV DNA levels compared to untreated virus control samples. Compound cytotoxicity was determined using MTS (CellTiter 96 Reagent, Promega) to measure cell viability as described above.
A general note: In qPCR the cycle at which signal appears reflects the starting amount.

Data set [2] in a line: Compound cytotoxicity (MTS cell viability) in the anti-hepatitis B assay. Conditions: human, HepG2 2.2.15 cells (stable HBV-producing line), HBV assay, HepG2 2.2.15 cells. The class given is cell-based.
Text: as §1

Data set [3] concerns HepG2 2.2.15 cells. The description is as above. The class given is cell-based. Conditions: cells used to culture HBV.
Text: as §1

For data set [4], the system named is HCVcc. Kind of data set: Anti hepatitis C activity assay: HCVcc infectivity in Huh7.5 cells, luciferase readout, single dose. It is filed as cell-based, Hepatitis C virus. The procedure: (§2) Huh7.5 cells are grown in Dulbecco's modified essential media (DMEM), 10% fetal bovine serum (FBS), 1% penicillin-streptomycin (pen-strep), 1% Non-essential amino acids (NEAA) in a 5% CO2 incubator at 37° C. Huh7.5 cells were seeded at 1×10^4 cells per well into 96-well plates according to Southern Research Institute standard format. The test article was serially diluted with DMEM plus 5% FBS. The diluted compound in the amount of 50 μl was mixed with equal volume of cell culture-derived HCV (HCVcc), then applied to appropriate wells in the plate. Human interferon alpha-2b (rIFNα-2b) was included as a positive control compound. After 72 hr incubation at 37° C., the cells were lysed for measurement of luciferase activity using Renilla Luciferase Assay System (Promega) according to manufacturer's instruction. The number of cells in each well were determined by CytoTox-1 reagent (Promega). Test articles were tested with 6 serial dilution in triplicate to derive, if applicable, IC50 and IC90 (concentration inhibiting HCVcc infectivity by 50% and 90%, respectively), TC50 (concentration decreasing cell viability by 50%) and SI (selective index: TC50/IC50) values. In the replicon assay, Sub-confluent cultures of the ET line were plated out into 96-well plates that are dedicated for the analysis of cell numbers (cytotoxicity) or antiviral activity and the next day drugs were added to the appropriate wells. Cells were processed 72 hours later when the cells were still sub-confluent. After six half-log serial dilutions of the compound, the applicable EC50 (concentration inhibiting HCV replicon by 50%), EC90 (concentration inhibiting HCV replicon by 90%), IC50 (concentration decreasing cell viability by […]) and SI (selective index: […]) values were derived. HCV replicon levels are assessed as replicon derived Luc activity. The toxic concentration of drug that reduced cell numbers was assessed by the CytoTox-1 cell proliferation assay (Promega), a fluorometric assay of cell numbers (and cytotoxicity). […]

Data set [5] is described as follows: Cytotoxicity (CytoTox-1 cell number) in the HCVcc assay. It is filed as cell-based. The conditions noted are these: human, Huh7.5 cells infected with HCVcc; HCVcc assay, Huh7.5 cells; CBD at 10 μM. The procedure: (§3) Huh7.5 cells are grown in Dulbecco's modified essential media (DMEM), 10% fetal bovine serum (FBS), 1% penicillin-streptomycin (pen-strep), 1% Non-essential amino acids (NEAA) in a 5% CO2 incubator at 37° C. Huh7.5 cells were seeded at 1×10^4 cells per well into 96-well plates according to Southern Research Institute standard format. The test article was serially diluted with DMEM plus 5% FBS. The diluted compound in the amount of 50 μl was mixed with equal volume of cell culture-derived HCV (HCVcc), then applied to appropriate wells in the plate. Human interferon alpha-2b (rIFNα-2b) was included as a positive control compound. After 72 hr incubation at 37° C., the cells were lysed for measurement of luciferase activity using Renilla Luciferase Assay System (Promega) according to manufacturer's instruction. The number of cells in each well were determined by CytoTox-1 reagent (Promega). […] HCV replicon levels are assessed as replicon derived Luc activity. The toxic concentration of drug that reduced cell numbers was assessed by the CytoTox-1 cell proliferation assay (Promega), a fluorometric assay of cell numbers (and cytotoxicity). […]

The subject of data set [6] is Huh7.5 cells. The data set is described as above. It is filed as cell-based. Conditions: cells used to culture HCV. As to the method: as §3
Data set [7] has as its system hepatitis C virus. In words: Dose-response assay against hepatitis C virus (EC50). It is filed as cell-based. Conditions: for EC50: Hepatitis C virus, read-out: ES50 (EC50 against hepatitis C virus). As to the method: as §2
Data set [8] is described as follows: Cytotoxicity (CC50) in the HCV dose-response assay. The conditions noted are these: human, Huh7.5 cells. It is filed as cell-based. As to the method: as §3

As to `C=C(C)[C@@H]1CCC(C)=C[C@H]1c1c(O)cc(CCCCC)cc1O` [CBD, Cannabidiol], the Percentage virus inhibition is recorded as 0% in data set [1] (CBD at single dose 10 (title uM, row head pM)) and 84.6% in data set [4] (HCVcc, CBD at single concentration 10 μM, Huh7.5 cells, 72 hr, 10 µM). Besides, the “Activity against HBV in vitro / inhibition of viral replication (in words)” value in data set [1] (in vitro, single-dose assay) is listed as “not against HBV; also recorded: not active”. Besides, in data set [2] (CBD at 10 (title uM, row head pM)), the cytotoxicity at 6 days, 10 µM came to 65.7%. Also, the “Cytotoxicity against HepG2 2.2.15 cells (in words)” value in data set [3] was “significant cytotoxicity”. Moreover, in data set [4] (Hepatitis C virus, Huh7.5, 72 h, HCVcc, CBD at single concentration 10 μM, Huh7.5 cells, 72 hr, read-out: Percentage virus inhibition), the inhibition at 10 µM was 86.4%. The “Activity against HCV in vitro / inhibition of viral replication (in words)” value in data set [4] (in vitro, single-dose assay) is on record as “active against HCV”. In data set [5], this compound showed a cytotoxicity at 72 h, 10 µM of 2.7%. Besides, the “Toxicity against Huh7.5 cells (in words)” value in data set [6] is on record as “minimal toxicity”. In addition, in data set [7], the EC50 was found to be 3.16 µM. For the same compound, in data set [7] (dose-response assay (Table 2)), the “Inhibition of the HCV virus in the dose-response assay (in words)” value was “dose-dependent inhibition”. The compound further yielded a CC50 at 72 h in data set [8] of 15.7 ± 0.25 µM.

The compound `Nc1ccn([C@@H]2CS[C@H](CO)O2)c(=O)n1` [Lamivudine, reference compound] gave a Percentage virus inhibition in data set [1] (Lamivudine at 2 (row head pM)) of 97.7%. For the same compound, the cytotoxicity at 6 days, 2 µM (printed pM) in data set [2] (Lamivudine at 2 (row head pM)) amounted to 0%.

`CC(C)OC(=O)[C@H](C)N[P@](=O)(OC[C@H]1O[C@@H](n2ccc(=O)[nH]c2=O)[C@](C)(F)[C@@H]1O)Oc1ccccc1` [Sofosbuvir, reference compound]: the half-maximal effective concentration (EC50) in data set [7] is 0.055 ± 0.0104 µM. Further, in data set [8], the CC50 at 72 h was above 10 µM.

The values are drawn from patent publication US10912740B2, “Treating hepatitis C with cannabidiol” (Vilotos Pharmaceuticals, Inc., priority 2017, dated 2021).
